Where only a bound is given, the exact number is not on record here.

One assay has as its target T1, ETB (Sus scrofa, UniProt P35463).
T1 construct: Membranes as endothelin receptors were isolated from inner medulla of porcine kidney; from tissue; host or cells: inner medulla of porcine kidney, crude membranes
T1 sequence (P35463 27-443): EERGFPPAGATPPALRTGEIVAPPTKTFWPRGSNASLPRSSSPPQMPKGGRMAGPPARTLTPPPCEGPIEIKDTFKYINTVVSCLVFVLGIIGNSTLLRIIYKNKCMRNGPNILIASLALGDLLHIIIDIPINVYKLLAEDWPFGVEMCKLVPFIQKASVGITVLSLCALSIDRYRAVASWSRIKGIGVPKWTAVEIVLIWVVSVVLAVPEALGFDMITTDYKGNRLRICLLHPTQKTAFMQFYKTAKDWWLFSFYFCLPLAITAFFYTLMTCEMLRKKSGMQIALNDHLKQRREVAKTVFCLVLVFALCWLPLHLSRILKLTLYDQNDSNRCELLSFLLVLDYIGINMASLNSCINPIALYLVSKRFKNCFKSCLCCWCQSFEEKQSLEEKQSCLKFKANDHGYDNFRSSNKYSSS
As to the kind of experiment: ETB Antagonistic Activity: radioligand binding assay, effect on specific binding of [^125 I]ET-1 in porcine kidney membrane. To be noted: inner medulla of porcine kidney membrane; [^125 I]ET-1 16 pM. The protocol: (ETB Antagonistic Activity)
(§1) Radioligand binding assay:
(§2) (a) Crude receptor membrane preparation:
Membranes as endothelin receptors were isolated from inner medulla of porcine kidney. The inner medulla of porcine kidney was placed in ice-cold buffer (0.25M sucrose, 5 mM Tris-HCl, 0.1 mM EDTA, pH 7.5). The inner medulla was homogenized in five volumes (w/v) of ice-cold buffer using a Brinkman Polytron PT-10 at a setting of 16,000 rpm for three 10-sec periods. The homogenate was centrifuged at 10,000× g for 20 minutes at 4° C. The pellet was discarded and the supernatant was centrifuged at 100,000× g for 60 minutes at 4° C. […]
To determine [^125 I]ET-1 binding to kidney, membrane suspensions prepared from kidney (10 μg of protein) were incubated by constant shaking for 60 minutes at 23° C. with [^125 I]ET-1 (range, 4-900 pM) in a total volume of 250 μl of buffer 1 that contained 0.1 mg/ml of bovine serum albumin. […] The filter disks were washed three times with 0.1 ml of ice-cold 50 mM Tris-HCl buffer (pH 7.5), and the radioactivity was counted in a gamma counter (Hewlett-Packard) with an efficiency of 71%. […] The Kd was determined by Scatchard analysis. […]

In the next assay the target is T2, ETA (Sus scrofa, UniProt Q29010).
T2 construct: The aorta membrane fractions were stored at -80° C. until use; tissue Pel-Freez Biologicals (U.S.A.); host or cells: porcine aorta, crude membrane fraction
T2 sequence (Q29010 21-427): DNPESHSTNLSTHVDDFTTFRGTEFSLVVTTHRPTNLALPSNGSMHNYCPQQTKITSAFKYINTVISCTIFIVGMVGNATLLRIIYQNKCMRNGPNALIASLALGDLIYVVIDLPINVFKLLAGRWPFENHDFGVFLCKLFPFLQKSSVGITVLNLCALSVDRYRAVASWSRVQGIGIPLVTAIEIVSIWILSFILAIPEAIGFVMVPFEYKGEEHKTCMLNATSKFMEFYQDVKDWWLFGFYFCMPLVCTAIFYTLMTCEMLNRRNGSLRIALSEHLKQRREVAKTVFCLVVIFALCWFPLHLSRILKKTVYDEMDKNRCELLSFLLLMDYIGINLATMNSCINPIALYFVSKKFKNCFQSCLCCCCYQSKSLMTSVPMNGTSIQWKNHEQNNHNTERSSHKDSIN
As to the kind of experiment: ETA Antagonistic Activity: radioligand binding assay, effect on specific binding of ^125 I-endothelin-1 in porcine aorta membrane. To be noted: ^125 I-Endothelin-1 1.67×10^-11 M, room temperature, 60 minutes. The protocol:
(ETA Antagonistic Activity)
as §1, §2
Porcine aorta was purchased from Pel-Freez Biologicals (U.S.A.) and stored at -80° C. until use.
Porcine aorta (50 g) was thawed and dissected free from fatty tissue, minced with scissors and then homogenized with a polytron (Brinkmann PT-20, maximal speed for 3×10 sec) in 100 ml buffer (0.25M sucrose, 10 mM Tris-HCl, 0.1 mM EDTA).
The homogenate was centrifuged at 10,000 g for 20 minutes at 4° C.
The supernatant, containing the plasma membrane fraction, was centrifuged at 100,000 g for 60 minutes at 4° C., and then resultant pellets were referred to as crude membrane fractions.
The pellets were resuspended in 25 ml of binding assay buffer (50 mM Tris-HCl, 100 mM NaCl, 5 mM MgCl2, 1.5 μg/ml phenylmethylsulfonyl fluoride (PMSF), 120 μg/ml bacitracin, 12 μg/ml leupepcin, 6 μg/ml chymostain, 0.1% bovine serum albumin (BSA), pH 7.5).
The aorta membrane fractions were stored at -80° C. until use.
(b) ^125 I-endothelin-1 binding assay: […]
After incubation, the incubation mixture were filtered through Glass-fiber GF/C filter (pretreated with 0.1% polyethylene imine for 3 hours prior to use) using cell harvester (Brandel M-24S). […] The filters were counted in a gamma counter (Packard Auto Gamma Model 5650).

In general, IC50 refers to the point on the concentration scale where inhibition reaches its midpoint. Read a low IC50 as inhibition by little substance. `O=C(O)[C@H](Cc1c[nH]c2ccccc12)NC(=O)[C@H](c1ccccc1O)[C@H](O)C1CCCCC1` [Compound A, N-[(2R,3R)-3-Cyclohexyl-2-(2-hydroxyphenyl)-3-hydroxypropionyl]-L-tryptophan] yielded an IC50 at ETB of 75 nM.
For the compound `CCC[C@@H](O)[C@H](C(=O)N[C@@H](Cc1c[nH]c2ccccc12)C(=O)O)c1ccc2c(c1)OCO2` (mixture of isomers) [Compound B, N-[(2RS,3RS)-2-(3,4-Methylenedioxyphenyl)-3-hydroxyhexanoyl]-L-tryptophan], the IC50 on ETB was below 10 nM; on ETA, 40 nM.
For the compound `CCC[C@@H](O)[C@H](C(=O)O)c1ccc2c(c1)OCO2` (racemic) [Compound C, (2RS,3RS)-2-(3,4-Methylenedioxyphenyl)-3-hydroxyhexanoic acid], at ETA, the IC50 was 530 nM.
